Experimental data from patent US11427567B2, “Imidazolyl pyrimidinylamine compounds as CDK2 inhibitors” (Incyte Corporation, priority 2019, dated 2022).

Each compound was assayed against CDK2/Cyclin E1 (Homo sapiens (Human), UniProt P24941) (assay: CDK2/Cyclin E1 HTRF enzyme activity assay (Example A)). Settings: 1 mM ATP.
Assay type: biochemical
Description: Assays were conducted in white 384-well polystyrene plates in a final reaction volume of 8 μL. […] HTRF signals were read after 1 hour at room temperature on a PHERAstar FS plate reader (BMG Labtech). Data was analyzed with IDBS XLFit and GraphPad Prism 5.0 software using a three or four parameter dose response curve to determine IC50 for each compound.

IC50, ≤ 50 nM:
CCN1CCN(Cc2cc(F)c(-n3cnc(-c4nc(N[C@@H]5CCN(S(C)(=O)=O)C[C@H]5F)ncc4C(F)(F)F)c3)c(F)c2)CC1 [Example 392, 4-(1-(4-((4-Ethylpiperazin-1-yl)methyl)-2,6-difluorophenyl)-1H-imidazol-4-yl)-N-((3R,4R)-3-fluoro-1-(methyslulfonyl)piperidin-4-yl)-5-(trifluoromethyl)pyrimidin-2-amine]
CS(=O)(=O)N1CC[C@H](Nc2ncc(C(F)(F)F)c(-c3cn(-c4cccc(C#N)c4Cl)cn3)n2)[C@H](F)C1 [Example 45, 2-Chloro-3-(4-(2-(((3R,4S)-3-fluoro-1-(methylsulfonyl)piperidin-4-yl)amino)-5-(trifluoromethyl)pyrimidin-4-yl)-1H-imidazol-1-yl)benzonitrile]
CS(=O)(=O)N1CCC(Nc2ncc(C(F)(F)F)c(-c3cn(-c4ccc(C#N)nc4CO)cn3)n2)CC1 [Example 236, 6-(Hydroxymethyl)-5-(4-(2-((1-(methylsulfonyl)piperidin-4-yl)amino)-5-(trifluoromethyl)pyrimidin-4-yl)-1H-imidazol-1-yl)picolinonitrile]
CCN1CCN(Cc2cc(F)c(-n3cnc(-c4nc(N[C@@H]5CCN(S(C)(=O)=O)C[C@H]5F)ncc4C(F)(F)F)c3)c(Cl)c2)CC1 [Example 403, 4-(1-(2-Chloro-4-((4-ethylpiperazin-1-yl)methyl)-6-fluorophenyl)-1H-imidazol-4-yl)-N-((3R,4R)-3-fluoro-1-(methylsulfonyl)piperidin-4-yl)-5-(trifluoromethyl)pyrimidin-2-amine]
Cn1ccc(S(=O)(=O)N2CC[C@@H](Nc3ncc(C(F)(F)F)c(-c4cn(CC(C)(C)O)cn4)n3)[C@H](F)C2)n1 [Example 335, 1-(4-(2-(((3R,4R)-3-Fluoro-1-((1-methyl-1H-pyrazol-3-yl)sulfonyl)piperidin-4-yl)amino)-5-(trifluoromethyl)pyrimidin-4-yl)-1H-imidazol-1-yl)-2-methylpropan-2-ol]
CCN1CC(c2ccc(-n3cc(-c4nc(NC5CCN(S(C)(=O)=O)CC5)ncc4C(F)(F)F)nc3C)c(F)c2)C1 [Example 418, 4-(1-(4-(1-Ethylazetidin-3-yl)-2-fluorophenyl)-2-methyl-1H-imidazol-4-yl)-N-(1-(methylsulfonyl)piperidin-4-yl)-5-(trifluoromethyl)pyrimidin-2-amine]
Cc1nc(-c2nc(N[C@H]3CCN(S(C)(=O)=O)C[C@H]3F)ncc2C(F)(F)F)cn1-c1ccc(CN2CCCC2)cc1F [Example 407, N-((3R,4S)-3-Fluoro-1-(methylsulfonyl)piperidin-4-yl)-4-(1-(2-fluoro-4-(pyrrolidin-1-ylmethyl)phenyl)-2-methyl-1H-imidazol-4-yl)-5-(trifluoromethyl)pyrimidin-2-amine]
CCNCc1ccc(-n2cnc(-c3nc(NC4CCN(S(C)(=O)=O)CC4)ncc3C(F)(F)F)c2)c(Cl)c1 [Example 189, 4-(1-(2-Chloro-4-((ethylamino)methyl)-phenyl)-1H-imidazol-4-yl)-N-(1-(methyl-sulfonyl)piperidin-4-yl)-5-(trifluoro-methyl)pyrimidin-2-amine]
Cn1cnc(-c2nc(NC3CCN(S(=O)(=O)c4cn(C)cn4)CC3)ncc2C(F)(F)F)c1 [Example 10, 4-(1-Methyl-1H-imidazol-4-yl)-N-(1-((1-methyl-1H-imidazol-4-yl)sulfonyl)piperidin-4-yl)-5-(trifluoromethyl)pyrimidin-2-amine]
CCN(C)CCCc1ccc(-n2cc(-c3nc(NC4CCN(S(C)(=O)=O)CC4)ncc3C(F)(F)F)nc2C)c(F)c1 [Example 460, 4-(1-(4-(3-(Ethyl(methyl)amino)propyl)-2-fluorophenyl)-2-methyl-1H-imidazol-4-yl)-N-(1-(methylsulfonyl)piperidin-4-yl)-5-(trifluoromethyl)pyrimidin-2-amine]
CCNCc1cc(F)c(-n2cnc(-c3nc(N[C@H]4CCN(S(C)(=O)=O)C[C@H]4F)ncc3C(F)(F)F)c2)c(F)c1 [Example 444, 4-(1-(4-((Ethylamino)methyl)-2,6-difluorophenyl)-1H-imidazol-4-yl)-N-((3R,4S)-3-fluoro-1-(methylsulfonyl)piperidin-4-yl)-5-(trifluoromethyl)pyrimidin-2-amine]
Cc1nc(-c2nc(NC3CCN(S(C)(=O)=O)CC3)ncc2C(F)(F)F)cn1-c1ccc(N2CCNCC2)cc1F [Example 111, 4-(1-(2-Fluoro-4-(piperazin-1-yl)-phenyl)-2-methyl-1H-imidazol-4-yl)-N-(1-(methyl-sulfonyl)piperidin-4-yl)-5-(trifluoro-methyl)pyrimidin-2-amine]
CS(=O)(=O)N1CCC(Nc2ncc(C(F)(F)F)c(-c3cn(-c4cnccc4C(F)(F)F)cn3)n2)CC1 [Example 66, N-(1-(Methylsulfonyl)piperidin-4-yl)-5-(trifluoromethyl)-4-(1-(4-(trifluoromethyl)pyridin-3-yl)-1H-imidazol-4-yl)pyrimidin-2-amine]
C[C@@H]1CN(S(=O)(=O)C2CC2)CC[C@@H]1Nc1ncc(C(F)(F)F)c(-c2cn(CC(C)(C)O)cn2)n1 [Example 332, 1-(4-(2-(((3R,4S)-1-(Cyclopropylsulfonyl)-3-methylpiperidin-4-yl)amino)-5-(trifluoromethyl)pyrimidin-4-yl)-1H-imidazol-1-yl)-2-methylpropan-2-ol]
Cn1c(Cl)nc(-c2nc(NC3CCN(S(C)(=O)=O)CC3)ncc2C(F)(F)F)c1Cl [Example 12, 4-(2,5-Dichloro-1-methyl-1H-imidazol-4-yl)-N-(1-(methylsulfonyl)piperidin-4-yl)-5-(trifluoromethyl)pyrimidin-2-amine]
CN(C)CCN(C)c1ccc(-n2cnc(-c3nc(NC4CCN(S(C)(=O)=O)CC4)ncc3C(F)(F)F)c2)c(Cl)c1 [Example 149, N^1-(3-Chloro-4-(4-(2-((1-(methyl-sulfonyl)piperidin-4-yl)amino)-5-(trifluoromethyl)-pyrimidin-4-yl)-1H-imidazol-1-yl)-phenyl)-N1,N2,N2-trimethylethane-1,2-diamine]
Cc1nc(-c2nc(NC3CCN(S(C)(=O)=O)CC3)ncc2C(F)(F)F)cn1-c1ccc(N2CC[C@@H](N(C)C)C2)cc1F [Example 109, (R)-4-(1-(4-(3-(Dimethylamino)-pyrrolidin-1-yl)-2-fluorophenyl)-2-methyl-1H-imidazol-4-yl)-N-(1-(methyl-sulfonyl)piperidin-4-yl)-5-(trifluoro-methyl)pyrimidin-2-amine]
CS(=O)(=O)N1CCC(Nc2ncc(C(F)(F)F)c(-c3cn(-c4ccc(OCCN5CCCC5)cc4C#N)cn3)n2)CC1 [Example 437, 2-(4-(2-((1-(Methylsulfonyl)piperidin-4-yl)amino)-5-(trifluoromethyl)pyrimidin-4-yl)-1H-imidazol-1-yl)-5-(2-(pyrrolidin-1-yl)ethoxy)benzonitrile]
